# Measured values reported in patent US6737383B1, “Herbicidal oxadiazolidines” (priority 1999, dated 2004).
# Experiments:
# smallflower flatsedge = assay: Test B flood test smallflower flatsedge; assay type: in vivo, Cyperus difformis
# Method in brief: (§1)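 Read-out is a visual response score from 0 (no effect) to 10 (complete control), assigned by comparison with untreated controls. Treatment was applied at the 2-leaf stage, and plants stayed in the greenhouse for twelve to sixteen days before scoring.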
# wheat = assay: Test B pre/postemergence wheat; assay type: in vivo, Triticum aestivum
# Method in brief: (§2)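 Response is a visual 0-to-10 score relative to untreated plants, where 0 means no effect and 10 means complete control, taken twelve to sixteen days after application. Treatments went onto soil at planting and onto foliage of 1- to 4-leaf plants, using a surfactant-containing non-phytotoxic solvent.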
# rape = assay: Test B pre/postemergence rape; assay type: in vivo, Brassica napus
# Method in brief: as §2
# pigweed = assay: Test B pre/postemergence pigweed; assay type: in vivo, Amaranthus retroflexus
# Method in brief: as §2
# giant foxtail = assay: Test B pre/postemergence giant foxtail; assay type: in vivo, Setaria faberii
# Method in brief: as §2
# surinam grass = assay: Test B pre/postemergence surinam grass; assay type: in vivo, Brachiaria decumbens
# Method in brief: as §2
# crabgrass = assay: Test B pre/postemergence crabgrass; assay type: in vivo, Digitaria sanguinalis
# Method in brief: as §2
# wild oat = assay: Test B pre/postemergence wild oat; assay type: in vivo, Avena fatua
# Method in brief: as §2
# bamyardgrass = assay: Test B flood test barnyardgrass; assay type: in vivo, Echinochloa crus-galli
# Method in brief: as §1
# bedstraw = assay: Test B pre/postemergence bedstraw; assay type: in vivo, Galium aparine; conditions: Postemergence
# Method in brief: as §2
# corn = assay: Test B pre/postemergence corn; assay type: in vivo, Zea mays
# Method in brief: as §2
# morningglory = assay: Test B pre/postemergence morningglory; assay type: in vivo, Ipomoea hederacea
# Method in brief: as §2
# rice = assay: Test B flood test rice; assay type: in vivo, Oryza sativa
# Method in brief: as §1
# blackgrass = assay: Test B pre/postemergence blackgrass; assay type: in vivo, Alopecurus myosuroides
# Method in brief: as §2
# purple nutsedge = assay: Test B pre/postemergence purple nutsedge; assay type: in vivo, Cyperus rotundus
# Method in brief: as §2
# sugar beet = assay: Test B pre/postemergence sugar beet; assay type: in vivo, Beta vulgaris
# Method in brief: as §2
# [1] = Rate 62 g/ha, flood test species, Pre-emergence, visual evaluation after twelve to sixteen days
# [2] = Rate 125 g/ha, under heading Pre-emergence, flood test species, visual evaluation after twelve to sixteen days
# [3] = Rate 250 g/ha, Pre-emergence (flood test species), scale 0 to 10, 0 is no effect, 10 is complete control
# [4] = Rate 500 g/ha, Pre-emergence section of Table B, 0 to 10 scale (0 no effect, 10 complete control)
# [5] = Postemergence, Rate 62 g/ha, scale 0 to 10, 0 is no effect, 10 is complete control
# [6] = Postemergence, Rate 125 g/ha, scale of 0 to 10 where 0 is no effect and 10 is complete control
# [7] = Preemergence, Rate 62 g/ha, scale of 0 to 10 where 0 is no effect and 10 is complete control
# [8] = Preemergence, Rate 125 g/ha, scale of 0 to 10 where 0 is no effect and 10 is complete control
# [9] = Preemergence, Rate 250 g/ha, scale 0 to 10 (0 no effect, 10 complete control)
# [10] = Preemergence, Rate 500 g/ha, scale of 0 to 10 where 0 is no effect and 10 is complete control
# [11] = Rate 500 g/ha, Postemergence, scale 0 to 10, 0 is no effect, 10 is complete control
# [12] = Postemergence, Rate 250 g/ha, scale of 0 to 10, 0 is no effect, 10 is complete control
compound,measurement,setting,value
CC(C)N(C(=O)n1oc(=O)n(CC2CCCCO2)c1=O)c1ccc(Cl)cc1 (stereo not drawn) [Compound 660],"Plant response rating, S. Flatsedge (0 to 10 scale, 0 is no effect, 10 is complete control)",smallflower flatsedge; [1],0
same,"S. Flatsedge plant response rating (0 to 10 scale, 0 is no effect, 10 is complete control)",smallflower flatsedge; [2],0
same,S. Flatsedge plant response rating,smallflower flatsedge; [3],0
same,S. Flatsedge plant response rating,smallflower flatsedge; [4],0
same,"Plant response rating, Wheat",wheat; [5],0
same,Wheat plant response rating,wheat; [6],0
same,Wheat plant response rating,wheat; [7],0
same,Wheat plant response rating,wheat; [8],0
same,"Plant response rating, Wheat",wheat; [9],0
same,"Plant response rating, Wheat",wheat; [10],0
same,Wheat plant response rating,wheat; [11],0
same,"Plant response rating, Rape",rape; [5],0
same,Rape plant response rating,rape; [6],0
same,Rape plant response rating,rape; [7],0
same,Rape plant response rating,rape; [8],0
same,"Plant response rating, Rape",rape; [9],3
same,"Plant response rating, Rape",rape; [10],4
same,Rape plant response rating,rape; [11],0
same,"Plant response rating, Redroot pigweed",pigweed; [5],2
same,Redroot pigweed plant response rating,pigweed; [6],2
same,Redroot pigweed plant response rating,pigweed; [7],0
same,Redroot pigweed plant response rating,pigweed; [8],5
same,"Plant response rating, Redroot pigweed",pigweed; [9],7
same,"Plant response rating, Redroot pigweed",pigweed; [10],10
same,Redroot pigweed plant response rating,pigweed; [11],6
same,"Plant response rating, Giant foxtail",giant foxtail; [5],3
same,Giant foxtail plant response rating,giant foxtail; [6],4
same,Giant foxtail plant response rating,giant foxtail; [12],5
same,Giant foxtail plant response rating,giant foxtail; [7],8
same,Giant foxtail plant response rating,giant foxtail; [8],10
same,"Plant response rating, Giant foxtail",giant foxtail; [9],10
same,"Plant response rating, Giant foxtail",giant foxtail; [10],10
same,Giant foxtail plant response rating,giant foxtail; [11],8
same,"Plant response rating, B. signalgrass",surinam grass; [5],0
same,"Plant response rating, B. signalgrass",surinam grass; [6],0
same,B. signalgrass plant response rating,surinam grass; [12],0
same,B. signalgrass plant response rating,surinam grass; [7],0
same,B. signalgrass plant response rating,surinam grass; [8],1
same,"Plant response rating, B. signalgrass",surinam grass; [9],4
same,"Plant response rating, B. signalgrass",surinam grass; [10],4
same,B. signalgrass plant response rating,surinam grass; [11],5
same,"Plant response rating, Crabgrass",crabgrass; [5],0
same,Crabgrass plant response rating,crabgrass; [6],1
same,Crabgrass plant response rating,crabgrass; [12],5
same,Crabgrass plant response rating,crabgrass; [7],4
same,Crabgrass plant response rating,crabgrass; [8],7
same,"Plant response rating, Crabgrass",crabgrass; [9],8
same,"Plant response rating, Crabgrass",crabgrass; [10],9
same,Crabgrass plant response rating,crabgrass; [11],7
same,"Plant response rating, Wild oats",wild oat; [5],0
same,Wild oats plant response rating,wild oat; [6],0
same,Wild oats plant response rating,wild oat; [7],0
same,Wild oats plant response rating,wild oat; [8],0
same,"Plant response rating, Wild oats",wild oat; [9],2
same,"Plant response rating, Wild oats",wild oat; [10],3
same,Wild oats plant response rating,wild oat; [11],0
same,"Plant response rating, Barnyardgrass (0 to 10 scale, 0 is no effect, 10 is complete control)",bamyardgrass; [1],0
same,"Barnyardgrass plant response rating (0 to 10 scale, 0 is no effect, 10 is complete control)",bamyardgrass; [2],0
same,Barnyardgrass plant response rating,bamyardgrass; [3],0
same,Barnyardgrass plant response rating,bamyardgrass; [4],0
same,"Plant response rating, Bedstraw","bedstraw; Rate 62 g/ha, scale 0 to 10, 0 is no effect, 10 is complete control",0
same,Bedstraw plant response rating,"bedstraw; Rate 125 g/ha, scale of 0 to 10 where 0 is no effect and 10 is complete control",0
same,Bedstraw plant response rating,"bedstraw; Rate 500 g/ha, scale 0 to 10, 0 is no effect, 10 is complete control",0
same,"Plant response rating, Corn",corn; [5],0
same,Corn plant response rating,corn; [6],0
same,Corn plant response rating,corn; [12],0
same,Corn plant response rating,corn; [7],0
same,Corn plant response rating,corn; [8],0
same,"Plant response rating, Corn",corn; [9],0
same,"Plant response rating, Corn",corn; [10],0
same,Corn plant response rating,corn; [11],2
same,"Plant response rating, Morningglory",morningglory; [5],1
same,Morningglory plant response rating,morningglory; [6],4
same,Morningglory plant response rating,morningglory; [12],6
same,Morningglory plant response rating,morningglory; [7],0
same,Morningglory plant response rating,morningglory; [8],0
same,"Plant response rating, Morningglory",morningglory; [9],0
same,"Plant response rating, Morningglory",morningglory; [10],0
same,Morningglory plant response rating,morningglory; [11],7
same,"Plant response rating, Rice (0 to 10 scale, 0 is no effect, 10 is complete control)",rice; [1],0
same,"Rice plant response rating (0 to 10 scale, 0 is no effect, 10 is complete control)",rice; [2],0
same,Rice plant response rating,rice; [3],0
same,Rice plant response rating,rice; [4],0
same,"Plant response rating, Blackgrass",blackgrass; [5],0
same,Blackgrass plant response rating,blackgrass; [6],0
same,Blackgrass plant response rating,blackgrass; [12],3
same,Blackgrass plant response rating,blackgrass; [7],0
same,Blackgrass plant response rating,blackgrass; [8],4
same,"Plant response rating, Blackgrass",blackgrass; [9],6
same,"Plant response rating, Blackgrass",blackgrass; [10],7
same,Blackgrass plant response rating,blackgrass; [11],6
same,"Plant response rating, Nutsedge",purple nutsedge; [5],0
same,Nutsedge plant response rating,purple nutsedge; [6],0
same,Nutsedge plant response rating,purple nutsedge; [7],0
same,Nutsedge plant response rating,purple nutsedge; [8],0
same,"Plant response rating, Nutsedge",purple nutsedge; [9],0
same,"Plant response rating, Nutsedge",purple nutsedge; [10],0
same,Nutsedge plant response rating,purple nutsedge; [11],0
same,"Plant response rating, Sugarbeets",sugar beet; [5],0
same,Sugarbeets plant response rating,sugar beet; [6],0
same,Sugarbeets plant response rating,sugar beet; [7],0
same,Sugarbeets plant response rating,sugar beet; [8],0
same,"Plant response rating, Sugarbeets",sugar beet; [9],0
same,"Plant response rating, Sugarbeets",sugar beet; [10],0
same,Sugarbeets plant response rating,sugar beet; [11],0
